Measurements as given in EP0289450A1, “15-Alkyl-19-thio-androst-4-en-3,17 diones, process for their preparation and pharmaceutical compositions containing them” (SCHERING AKTIENGESELLSCHAFT, priority 1987, dated 1988).

Target: T1, Aromatase (Rattus norvegicus, UniProt P22443)
T1 construct: Infantile weibliche Ratten reagieren auf PMSG-Behandlung mit einheitlich erhöhter Steroidsynthese; from tissue; host or cells: living infantile female rats (whole animal); estradiol measured in serum by radioimmunoassay
T1 sequence (P22443 1-508): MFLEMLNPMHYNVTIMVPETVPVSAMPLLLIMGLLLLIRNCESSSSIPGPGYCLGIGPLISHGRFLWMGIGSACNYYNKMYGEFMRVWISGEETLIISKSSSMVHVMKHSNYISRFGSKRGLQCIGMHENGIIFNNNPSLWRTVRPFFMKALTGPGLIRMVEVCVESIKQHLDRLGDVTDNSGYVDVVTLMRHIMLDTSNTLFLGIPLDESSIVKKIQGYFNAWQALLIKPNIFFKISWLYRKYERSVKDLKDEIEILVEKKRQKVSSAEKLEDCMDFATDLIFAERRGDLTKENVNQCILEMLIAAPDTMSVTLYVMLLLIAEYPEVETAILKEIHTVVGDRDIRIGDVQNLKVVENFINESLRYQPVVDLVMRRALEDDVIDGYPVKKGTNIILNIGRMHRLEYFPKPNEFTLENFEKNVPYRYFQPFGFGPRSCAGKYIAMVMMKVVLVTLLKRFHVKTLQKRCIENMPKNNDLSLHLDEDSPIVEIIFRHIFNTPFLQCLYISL
Experiment: PMSG (Pregnant Mare's Serum Gonadotropin) test: effect on PMSG-stimulated serum estradiol after oral application
Format: in vivo, Ratte
Settings: 10 mg/Tier 2 x p.o.; for Östradiol-Konzentration in: peripheral serum of PMSG-pretreated infantile female rats, 24 h after last PMSG application, mean ± standard deviation, n = 10; for relative Wirkstärke: relative potency versus compound A (= 1,0), by regression and covariance analysis, rat
Text: So konnte zum Beispiel im sogenannten PMSG (Pregnant Mare's Serum Gonadotropin)-Test [J. Steroid. Biochem. 7, (1976) 787] gezeigt werden, daß im Vergleich zu dem bekannten Aromatasehemmer 19-Methylthio-4-androsten-3,17-dion (A) die erfindungsgemäßen Verbindungen, wie zum Beispiel 15α-Ethyl-19-methylthio-4-androsten-3,17-dion (B), bei oraler Applikation eine stärkere Wirkung besitzen.
Infantile weibliche Ratten reagieren auf PMSG-Behandlung mit einheitlich erhöhter Steroidsynthese. Die Aromataseaktivität kann durch die Beeinflussung der PMSG-stimulierten Östrogenbildung gemessen werden.
Im PMSG-Test werden 21 Tage alte weibliche Ratten alle 2 Tage insgesamt 7 mal mit je 100 I.U. PMSG subkutan vorbehandelt. 1 Stunde vor und 8 Stunden nach der letzten PMSG-Applikation (d₁₂) erhalten die Tiere die Testsubstanz durch orale Applikation.
Die Kontrolltiere erhalten nur das Vehikel. 24 Stunden nach der letzten PMSG-Applikation werden die Tiere getötet. Im Serum wird Östradiol radioimmunologisch geprüft. Für jede Gruppe von 10 Tieren wird der Mittelwert der Östradiolkonzentration in nMol/l mit der Standardabweichung errechnet. Die Signifikanzen der Unterschiede zur Kontrollgruppe werden durch die Varianzanalyse geprüft.
Zur Ermittlung der relativen Wirkungsstärke der zu testenden Substanz im Vergleich zu der Vergleichssubstanz wird die Regressions- und Kovarianzanalyse durchgeführt. Ferner wird die prozentuale Hemmung gegen die PMSG-Kontrolle berechnet.

Compound | Östradiol-Konzentration in | relative Wirkstärke
CSC[C@]12CCC(=O)C=C1CC[C@@H]1[C@@H]2CC[C@]2(C)C(=O)CC[C@@H]12 [A, 19-Methylthio-4-androsten-3,17-dion] | 5,50 ± 0,43 nMol/l | 1,0
CC[C@H]1CC(=O)[C@@]2(C)CC[C@H]3[C@@H](CCC4=CC(=O)CC[C@@]43CSC)[C@H]12 [B, 15α-Ethyl-19-methylthio-4-androsten-3,17-dion] | 4,05 ± 0,36 nMol/l | 3,2
